# Assay results taken from patent US20240376090A1, “ISOXAZOLE DERIVATIVES AS MODULATORS OF THE 5-HT2A SEROTONIN RECEPTOR USEFUL FOR THE TREATMENT OF DISORDERED RELATED THERETO” (Arena Pharmaceuticals, Inc., priority 2020, published 2024).
# How the values were obtained:
# 5-HT2A receptor [1] = biological target: T1, 5-HT2A receptor (Homo sapiens (Human), UniProt P28223); test: Radioligand binding assay ([3H]5-HT competition), 5-HT2A; conditions: [3H]5-HT radioligand, membranes of HEK293 cells expressing recombinant 5-HT2A; Ki from IC50 by Cheng-Prusoff; read-out: 5-HT2A serotonin binding Ki value
# T1 sequence (P28223 whole entry): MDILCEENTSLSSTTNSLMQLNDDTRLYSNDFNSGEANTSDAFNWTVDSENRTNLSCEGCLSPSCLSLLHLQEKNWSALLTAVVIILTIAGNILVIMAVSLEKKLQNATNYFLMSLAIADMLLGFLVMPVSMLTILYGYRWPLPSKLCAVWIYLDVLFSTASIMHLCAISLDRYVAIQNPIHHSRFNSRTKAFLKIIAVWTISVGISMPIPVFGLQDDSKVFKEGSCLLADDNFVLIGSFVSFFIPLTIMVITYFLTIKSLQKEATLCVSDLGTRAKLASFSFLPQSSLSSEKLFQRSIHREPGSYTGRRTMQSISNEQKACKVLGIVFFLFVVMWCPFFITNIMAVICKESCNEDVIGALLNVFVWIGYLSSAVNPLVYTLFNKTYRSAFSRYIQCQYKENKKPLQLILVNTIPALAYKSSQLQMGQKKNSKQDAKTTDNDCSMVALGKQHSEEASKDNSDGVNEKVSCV
# 5-HT2C receptor = 5-HT2C receptor (Homo sapiens (Human), UniProt P28335); test: HTRF IP-One antagonist assay, 5-HT2C; format: cell-based; conditions: HEK293 cells stably expressing recombinant human receptor; IP accumulation with 80 nM 5-HT
# Sequence of 5-HT2C receptor (P28335 33-458): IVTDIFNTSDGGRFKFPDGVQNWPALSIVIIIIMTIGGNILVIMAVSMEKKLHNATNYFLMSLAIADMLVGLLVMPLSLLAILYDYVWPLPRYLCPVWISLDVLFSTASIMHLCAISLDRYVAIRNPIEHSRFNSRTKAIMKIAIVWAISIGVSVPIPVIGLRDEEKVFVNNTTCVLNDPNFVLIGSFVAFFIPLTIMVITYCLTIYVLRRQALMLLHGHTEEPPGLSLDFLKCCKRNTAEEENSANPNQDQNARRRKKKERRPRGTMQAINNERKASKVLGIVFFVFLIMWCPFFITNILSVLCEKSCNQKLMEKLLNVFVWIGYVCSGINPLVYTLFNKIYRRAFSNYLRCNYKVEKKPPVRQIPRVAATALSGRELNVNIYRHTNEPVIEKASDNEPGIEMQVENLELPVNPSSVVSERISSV
# Method: (§1) HEK293 cells stably expressing 5-HT2 receptors were generated using standard procedures. Cells were dilution cloned and clonal cell lines stably expressing the receptors at low levels were selected for pharmacology studies. In radioligand binding studies using a variety of radiolabeled probes, receptor densities in the 2A, 2B and 2C cell lines were estimated to be 50-70, 150-200, and 10-20 fmol/mg, respectively.
# (§2) Inositol phosphate accumulation assays were performed using the HTRF IP-One assay system developed by Cisbio and generally followed the manufacturer's instructions. Briefly, HEK293 cells stably expressing recombinant human receptors were harvested and resuspended in phenol-red free OptiMEM (ThermoFisher), plated into 384-well assay plates (Perkin Elmer, ProxiPlate-Plus® Cat #6008280) at 10,000 cells/well in a volume of 10 μL/well, and incubated overnight at 37° C., 5% CO2. Test compounds were solubilized and serially diluted in DMSO, and then diluted into Assay Buffer (Tris HCl 20 mM, NaCl 150 mM, LiCl 40 mM, pargyline 25 μM, pH 8) containing 80 nM 5-HT. Test compounds were added to the cells (4 μL/well addition, maximal final assay concentration typically 10 μM) and plates, incubated for 2 hrs at 37° C./5% CO2 and then removed from the incubator and allowed to cool to room temperature for 30 minutes prior to addition of IP-One detection reagents. IP-One detection reagents (6 μL/well) were added and plates incubated for 1 hr at room temperature before reading on an HTRF compatible reader such as a Perkin Elmer EnVision® or BMG PheraStar®. Dose-response experiments utilized 10-point curves, typically starting at 10 μM, with 5-fold serial dilutions. Experiments were performed with triplicate data points and independent replicate experiments were performed to ensure data consistency.
# 5-HT2A receptor [2] = biological target: T1, 5-HT2A receptor; test: HTRF IP-One antagonist assay, 5-HT2A; format: cell-based; conditions: HEK293 cells stably expressing recombinant human receptor; IP accumulation with 80 nM 5-HT
# Method: as §1, §2
# 5-HT2B receptor = 5-HT2B receptor (Homo sapiens (Human), UniProt P41595); test: HTRF IP-One antagonist assay, 5-HT2B; format: cell-based; conditions: HEK293 cells stably expressing recombinant human receptor; IP accumulation with 80 nM 5-HT
# Sequence of 5-HT2B receptor (P41595 whole entry): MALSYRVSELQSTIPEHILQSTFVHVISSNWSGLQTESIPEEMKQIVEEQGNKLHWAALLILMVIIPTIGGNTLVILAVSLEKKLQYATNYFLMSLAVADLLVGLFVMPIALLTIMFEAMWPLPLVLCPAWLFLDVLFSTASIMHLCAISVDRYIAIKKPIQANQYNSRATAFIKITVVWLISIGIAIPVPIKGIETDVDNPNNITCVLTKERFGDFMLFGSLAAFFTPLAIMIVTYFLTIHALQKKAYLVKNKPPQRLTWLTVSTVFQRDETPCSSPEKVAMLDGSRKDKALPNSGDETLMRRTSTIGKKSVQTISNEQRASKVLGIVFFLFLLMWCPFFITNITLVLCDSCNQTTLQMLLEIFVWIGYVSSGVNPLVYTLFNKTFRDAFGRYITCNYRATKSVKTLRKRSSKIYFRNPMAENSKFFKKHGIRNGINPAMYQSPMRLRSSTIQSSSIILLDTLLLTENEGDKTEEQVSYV
# Method: as §1, §2
IC50 (5-HT2C receptor),IC50 (5-HT2A receptor [2]),IC50 (5-HT2B receptor),Compound,Ki (5-HT2A receptor [1])
≥ 100000 nM,60.1 nM,≥ 100000 nM,"Cc1noc(C)c1-c1cc(NC(=O)[C@H]2C[C@H]2F)ccc1OC[C@H]1CCCCN1 [Compound 191, (1R,2R)—N-(3-(3,5-dimethylisoxazol-4-yl)-4-(((R)-piperidin-2-yl)methoxy)phenyl)-2-fluorocyclopropane-1-carboxamide]",7.61 nM
≥ 100000 nM,17.8 nM,≥ 100000 nM,"Cc1noc(C)c1-c1cc(NC(=O)Cc2ccccc2)ccc1OC[C@H]1CCCCN1 [Compound 221, (R)—N-(3-(3,5-dimethylisoxazol-4-yl)-4-(piperidin-2-ylmethoxy)phenyl)-2-phenylacetamide]",4.22 nM
4920 nM,44.2 nM,3390 nM,"Cc1noc(C)c1-c1cc(NC(=O)c2ccc(F)cc2)ccc1OC1CNC1 [Compound 242, N-(4-(azetidin-3-yloxy)-3-(3,5-dimethylisoxazol-4-yl)phenyl)-4-fluorobenzamide]",2.1 nM
6210 nM,16.5 nM,≥ 100000 nM,"Cc1noc(C)c1-c1cc(NC(=O)c2cccc(F)c2)ccc1OC1CNC1 [Compound 243, N-(4-(azetidin-3-yloxy)-3-(3,5-dimethylisoxazol-4-yl)phenyl)-3-fluorobenzamide]",1.07 nM
,109 nM,≥ 100000 nM,"Cc1noc(C)c1-c1cc(NC(=O)C2CC2)ccc1OC1CNC1 [Compound 172, N-(4-(azetidin-3-yloxy)-3-(3,5-dimethylisoxazol-4-yl)phenyl)cyclopropanecarboxamide]",6.5 nM
,38.2 nM,≥ 100000 nM,"Cc1noc(C)c1-c1cc(NC(=O)Cc2cccc(F)c2)ccc1OCCN1CCC1 [Compound 125, N-(4-(2-(azetidin-1-yl)ethoxy)-3-(3,5-dimethylisoxazol-4-yl)phenyl)-2-(3-fluorophenyl)acetamide]",4.5 nM
,29.7 nM,,"Cc1noc(C)c1-c1cc(NC(=O)c2ccc(F)cc2)ccc1OCCN1CCC1 [Compound 121, N-(4-(2-(azetidin-1-yl)ethoxy)-3-(3,5-dimethylisoxazol-4-yl)phenyl)-4-fluorobenzamide]",4.67 nM
,8.92 nM,,"COc1cccc(C(=O)Nc2ccc(OCCN3CCC3)c(-c3c(C)noc3C)c2)c1 [Compound 122, N-(4-(2-(azetidin-1-yl)ethoxy)-3-(3,5-dimethylisoxazol-4-yl)phenyl)-3-methoxybenzamide]",2.7 nM
,31.1 nM,≥ 100000 nM,"Cc1noc(C)c1-c1cc(NC(=O)[C@@H]2C[C@@H]2F)ccc1OC[C@H]1CCCCN1 [Compound 192, (1S,2S)—N-(3-(3,5-dimethylisoxazol-4-yl)-4-(((R)-piperidin-2-yl)methoxy)phenyl)-2-fluorocyclopropane-1-carboxamide]",4.91 nM
,5.19 nM,≥ 100000 nM,"Cc1noc(C)c1-c1cc(NC(=O)C2(F)CC2)ccc1OC[C@H]1CCCCN1 [Compound 217, (R)—N-(3-(3,5-dimethylisoxazol-4-yl)-4-(piperidin-2-ylmethoxy)phenyl)-1-fluorocyclopropane-1-carboxamide]",1.21 nM
,6.17 nM,≥ 100000 nM,"Cc1noc(C)c1-c1cc(NC(=O)c2c(F)cnn2C)ccc1OC[C@H]1CCCCN1 [Compound 230, (R)—N-(3-(3,5-dimethylisoxazol-4-yl)-4-(piperidin-2-ylmethoxy)phenyl)-4-fluoro-1-methyl-1H-pyrazole-5-carboxamide]",6.17 nM
,,,"Cc1noc(C)c1-c1cc(NC(=O)C2CC2)ccc1OCCN1CCC2(CC1)CNC2=O [Compound 139, N-(3-(3,5-dimethylisoxazol-4-yl)-4-(2-(1-oxo-2,7-diazaspiro[3.5]nonan-7-yl)ethoxy)phenyl)cyclopropanecarboxamide]",124 nM
,,,"CCN(C)CCOc1ccc(NC(=O)C2CC2)cc1-c1c(C)noc1C [Compound 149, N-(3-(3,5-dimethylisoxazol-4-yl)-4-(2-(ethyl(methyl)amino)ethoxy)phenyl)cyclopropanecarboxamide]",13.9 nM
,,,"Cc1noc(C)c1-c1cc(NC(=O)c2c(F)cnn2C)ccc1OCCN1CCC1 [Compound 130, N-(4-(2-(azetidin-1-yl)ethoxy)-3-(3,5-dimethylisoxazol-4-yl)phenyl)-4-fluoro-1-methyl-1H-pyrazole-5-carboxamide]",12.8 nM
,,,"CCCN(C)CCOc1ccc(NC(=O)C2CC2)cc1-c1c(C)noc1C [Compound 150, N-(3-(3,5-dimethylisoxazol-4-yl)-4-(2-(methyl(propyl)amino)ethoxy)phenyl)cyclopropanecarboxamide]",13.5 nM
,,,"Cc1noc(C)c1-c1cc(NC(=O)c2ccncc2)ccc1OCCN1CCCC1 [Compound 102, N-(3-(3,5-dimethylisoxazol-4-yl)-4-(2-(pyrrolidin-1-yl)ethoxy)phenyl)isonicotinamide]",119 nM
,,,"Cc1noc(C)c1-c1cc(NC(=O)c2ccnn2C)ccc1OCCN1C[C@@H]2C[C@H]1CO2 [Compound 163, N-[3-(3,5-dimethylisoxazol-4-yl)-4-[2-[(1S,4S)-2-oxa-5-azabicyclo[2.2.1]heptan-5-yl]ethoxy]phenyl]-2-methyl-pyrazole-3-carboxamide]",6.73 nM
,19.7 nM,≥ 100000 nM,"Cc1ncsc1CC(=O)Nc1ccc(OC[C@H]2CCCCN2)c(-c2c(C)noc2C)c1 [Compound 225, (R)—N-(3-(3,5-dimethylisoxazol-4-yl)-4-(piperidin-2-ylmethoxy)phenyl)-2-(4-methylthiazol-5-yl)acetamide]",3.18 nM
,,,"Cc1ncoc1C(=O)Nc1ccc(OCCN2CCCC2)c(-c2c(C)noc2C)c1 [Compound 112, N-(3-(3,5-dimethylisoxazol-4-yl)-4-(2-(pyrrolidin-1-yl)ethoxy)phenyl)-4-methyloxazole-5-carboxamide]",14.1 nM
,,,"COc1cccc(CC(=O)Nc2ccc(OCCN3CCC3)c(-c3c(C)noc3C)c2)c1 [Compound 124, N-(4-(2-(azetidin-1-yl)ethoxy)-3-(3,5-dimethylisoxazol-4-yl)phenyl)-2-(3-methoxyphenyl)acetamide]",10.6 nM
,,,"Cc1noc(C)c1-c1cc(NC(=O)[C@@H]2C[C@H]2F)ccc1OC[C@H]1CCCCN1 [Compound 190, (1S,2R)—N-(3-(3,5-dimethylisoxazol-4-yl)-4-(((R)-piperidin-2-yl)methoxy)phenyl)-2-fluorocyclopropane-1-carboxamide]",1.19 nM
,,,"Cc1noc(C)c1-c1cc(NC(=O)C2CC2)ccc1OC[C@@H]1CCCCN1 [Compound 170, (S)—N-(3-(3,5-dimethylisoxazol-4-yl)-4-(piperidin-2-ylmethoxy)phenyl)cyclopropanecarboxamide]",49.6 nM
,,,"COCC1(C(=O)Nc2ccc(OC[C@H]3CCCCN3)c(-c3c(C)noc3C)c2)CC1 [Compound 204, (R)—N-(3-(3,5-dimethylisoxazol-4-yl)-4-(piperidin-2-ylmethoxy)phenyl)-1-(methoxymethyl)cyclopropane-1-carboxamide]",25 nM
,,,"Cc1noc(C)c1-c1cc(NC(=O)C(F)c2ccccc2)ccc1OC[C@H]1CCCCN1 (stereo partly drawn) [Compound 206, N-(3-(3,5-dimethylisoxazol-4-yl)-4-(((R)-piperidin-2-yl)methoxy)phenyl)-2-fluoro-2-phenylacetamide]",3.4 nM
,,,"Cc1ncsc1C(=O)Nc1ccc(OCCN2CCCC2)c(-c2c(C)noc2C)c1 [Compound 109, N-(3-(3,5-dimethylisoxazol-4-yl)-4-(2-(pyrrolidin-1-yl)ethoxy)phenyl)-4-methylthiazole-5-carboxamide]",3.78 nM
,,,"Cc1noc(C)c1-c1cc(NC(=O)Cc2cncc(F)c2)ccc1OCCN1CCC1 [Compound 128, N-(4-(2-(azetidin-1-yl)ethoxy)-3-(3,5-dimethylisoxazol-4-yl)phenyl)-2-(5-fluoropyridin-3-yl)acetamide]",14.6 nM
,,,"Cc1noc(C)c1-c1cc(NC(=O)C2CC2)ccc1OC[C@@H]1CCCN1 [Compound 176, (S)—N-(3-(3,5-dimethylisoxazol-4-yl)-4-(pyrrolidin-2-ylmethoxy)phenyl)cyclopropanecarboxamide]",395 nM
,,,"Cc1noc(C)c1-c1cc(NC(=O)C(C)(C)F)ccc1OC[C@H]1CCCCN1 [Compound 199, N-[3-(3,5-dimethylisoxazol-4-yl)-4-[[(2R)-2-piperidyl]methoxy]phenyl]-2-fluoro-2-methyl-propanamide]",35.6 nM
,,,"Cc1nc(C(=O)Nc2ccc(OC[C@H]3CCCCN3)c(-c3c(C)noc3C)c2)c(C)s1 [Compound 210, (R)—N-(3-(3,5-dimethylisoxazol-4-yl)-4-(piperidin-2-ylmethoxy)phenyl)-2,5-dimethylthiazole-4-carboxamide]",86.3 nM
